Data as given in ChEMBL document CHEMBL4376816, “Discovery of the Oral Leukotriene C4 Synthase Inhibitor (1S,2S)-2-({5-[(5-Chloro-2,4-difluorophenyl)(2-fluoro-2-methylpropyl)amino]-3-methoxypyrazin-2-yl}carbonyl)cyclopropanecarboxylic Acid (AZD9898) as a New Treatment for Asthma” (J Med Chem, 2019).
Calls of active or inactive are those of the source. No cut-off for these calls is given here.

Tests used:
[1] = Fraction unbound in human plasma by equilibrium dialysis based LC-MS analysis; format: ADME, cell-free
[2] = Fraction unbound in cynomolgus monkey plasma by equilibrium dialysis based LC-MS analysis; format: ADME, cell-free, Macaca fascicularis
[3] = Displacement of [3H]-GABA/[3]-muscimol from GABA gated chloride channel in Sprague-Dawley rat cortical synoptic membranes by liquid scintillation analysis
[4] = biological target: T1, Leukotriene C4 synthase (Homo sapiens) (UniProt Q16873); test: Inhibition of LTC4S in healthy human whole blood assessed as inhibition of calcium ionophore A23187 stimulated cysteinyl leukotrienes production preincuabted for 30 mins followed by calcium ionophore stimulation and measured after 10 mins by LC-MS analysis; format: tissue-based
T1 sequence (whole entry): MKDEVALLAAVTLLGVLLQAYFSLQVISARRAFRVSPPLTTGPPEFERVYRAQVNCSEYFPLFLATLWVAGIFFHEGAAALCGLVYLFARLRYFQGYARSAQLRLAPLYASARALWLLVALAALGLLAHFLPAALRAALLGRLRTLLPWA

With `COc1nc(N(CC(C)(C)F)c2cc(Cl)c(F)cc2F)cnc1C(=O)[C@H]1C[C@@H]1C(=O)O` [AZD-9898] the fraction unbound [1] was 0.036, the fraction unbound [2] was 0.03 and the IC50 [3] was greater than 100 µM. The inhibition [4] was “Active”.
